Experiment [1] deals with T1, C-C chemokine receptor type 3 (Homo sapiens) (UniProt P51677).
T1 sequence (whole entry): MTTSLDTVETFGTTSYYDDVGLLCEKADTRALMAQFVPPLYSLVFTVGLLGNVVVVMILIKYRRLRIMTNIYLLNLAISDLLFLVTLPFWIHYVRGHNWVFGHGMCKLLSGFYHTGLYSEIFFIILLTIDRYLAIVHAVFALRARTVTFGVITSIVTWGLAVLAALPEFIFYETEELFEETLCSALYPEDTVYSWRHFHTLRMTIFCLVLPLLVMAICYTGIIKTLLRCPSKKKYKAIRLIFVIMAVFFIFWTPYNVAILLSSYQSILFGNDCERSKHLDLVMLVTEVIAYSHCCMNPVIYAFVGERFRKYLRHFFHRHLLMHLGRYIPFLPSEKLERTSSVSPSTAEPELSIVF
As to the kind of experiment: In vitro inhibitory activity against C-C chemokine receptor type 3 at 10 uM using 150p M [125I]-labeled human eotaxin.

For experiment [2], the target named is T2, C-C chemokine receptor type 3 (Homo sapiens, UniProt P51677).
T2 sequence (P51677 whole entry): T1 sequence (whole entry)
As to the kind of experiment: In vitro inhibition if C-C chemokine receptor type 3 (CCR3) using 150p M [125I]-labeled human eotaxin.

Experiment [3] has as its target T2, C-C chemokine receptor type 3. The experiment is described as follows: In vitro C-C chemokine receptor type 3 receptor activity of compound to inhibit eotaxin induced [Ca2+] mobilization in human Ca2+ mobilization assay. A general note: Calcium flux is commonly read through the fluorescence of an indicator in the cells.
Experiment [4] concerns the target T1, C-C chemokine receptor type 3 (Homo sapiens). Particulars: 0.5 uM.
Description: In vitro inhibitory activity of compound against C-C chemokine receptor type 3 at 0.5 uM using 150p M [125I]-labeled human eotaxin as radioligand
The target is the same in experiment [5]. The experiment is described as follows: In vitro inhibitory activity of compound against C-C chemokine receptor type 3 at 5 uM using 150p M [125I]-labeled human eotaxin as radioligand.

Consider 17 molecules from ChEMBL document CHEMBL1136024, “CCR3 antagonists: a potential new therapy for the treatment of asthma. Discovery and structure-activity relationships” (Bioorg Med Chem Lett, 2002).

Consider `O=C(NCCCCN1CC[C@@H]2[C@H](C1)c1cccc3c1N2CC3)C1CCCCC1`, for which the inhibition (in general, the drop in the measured response relative to a control, in per cent) in experiment [1] worked out at 45%. Also, the IC50 – broadly, the concentration that gives 50% inhibition – in experiment [2] was found to be 11000 nM.
`O=C(NCCCCN1CC[C@@H]2[C@H](C1)c1cccc3c1N2CC3)C12CC3CC(CC(C3)C1)C2`: in experiment [1], the inhibition is 73%. In addition, the IC50 in experiment [2] was 6600 nM.
Regarding `COc1cccc(NC(=O)N2CCOC(CN3CCC(Cc4ccc(F)cc4)CC3)C2)c1` (racemic), the IC50 in experiment [2] is 50 nM; in experiment [3], 220 nM.
The matching figures for `COc1cccc(NC(=O)N2CCCC(CN3CCC(Cc4ccc(F)cc4)CC3)C2)c1` (racemic): 50 nM and 820 nM.
As for `Fc1ccc(CN2CC[C@@H]3[C@H](C2)c2cccc4c2N3CC4)cc1`, the inhibition in experiment [1] amounted to 15%.
The molecule `Fc1ccc(CCCN2CC[C@@H]3[C@H](C2)c2cccc4c2N3CC4)cc1` returned an inhibition in experiment [1] of 100%. The molecule also gave a half-inhibitory concentration (IC50) in experiment [2] of 500 nM.
Regarding `NCCN1CC[C@@H]2[C@H](C1)c1cccc3c1N2CC3`, the inhibition in experiment [1] came to 15%.
Take `COc1cccc(NC(=O)N2CCN(C(=O)OC(C)(C)C)C(CN3CCC(Cc4ccc(F)cc4)CC3)C2)c1` (racemic): the 50% inhibitory concentration (IC50) came to 40 nM in experiment [2] and 200 nM in experiment [3].
Regarding `COc1cccc(NC(=O)N2CCNC(CN3CCC(Cc4ccc(F)cc4)CC3)C2)c1` (racemic), the IC50 in experiment [2] came out at 30 nM; in experiment [3], 140 nM.
In turn, `CC(C)(C)C(=O)NCCCCN1CC[C@@H]2[C@H](C1)c1cccc3c1N2CC3` showed an inhibition in experiment [1] of 45%. This molecule also had a 50% inhibitory concentration (IC50) in experiment [2] of 25600 nM.
In experiment [1], `Fc1ccc(CCN2CC[C@@H]3[C@H](C2)c2cccc4c2N3CC4)cc1` had an inhibition of 50%.
On the same count and under the same terms, then `NCCCN1CC[C@@H]2[C@H](C1)c1cccc3c1N2CC3`, with 14%; and `NCCCCN1CC[C@@H]2[C@H](C1)c1cccc3c1N2CC3`, with 5%.
Consider `CC[C@H](O)[C@H]1C[C@@H](Cc2ccccc2)CCN1CCCNC(=O)Nc1cccc(C(C)=O)c1`, for which the inhibition in experiment [4] came out at 40%.
`N#Cc1cccc(NC(=O)NCCCN2CCC(Cc3ccc(C(F)(F)F)cc3)CC2)c1` came in with an inhibition in experiment [5] of 52%.
With `CCC[C@H]1C[C@@H](Cc2ccccc2)CCN1CCCNC(=O)Nc1cccc(C(C)=O)c1` (stereo in doubt; 79), in experiment [2], the IC50 was 100 nM.
In experiment [2], `CCC[C@H](O)[C@H]1C[C@@H](Cc2ccccc2)CCN1CCCNC(=O)Nc1cccc(C(C)=O)c1` returned an IC50 of 7 nM.
